We go through one molecule from patent US20180338980A1, “AROMATIC SULFONAMIDE DERIVATIVES” (BAYER PHARMA AKTIENGESELLSCHAFT, priority 2015, published 2018).

The subject of one assay is PGE2 levels. Description: PGE2 levels after CFA-induced inflammation in mice (hind paw tissue, ELISA). It counts as in vivo, mouse. The note with it: single oral dose 12.5, 25, 50 mg/kg, 48 h after CFA, 1 h after dose. Here is the method: Female c57bl/6 mice (Taconic) received intraplantar injection of complete Freund's adjuvant (CFA) (30 μl, 1 mg/ml, Sigma) into the left hind paw under isoflurane anesthesia. […] At termination of the experiments (48 h after CFA, 1 h after dose), hind paw tissue is collected for analysis of PGE2 levels (ELISA, Cayman Chemical item no. 514531).
(§1) Statistical analysis is performed with one-way analysis of variance, followed by Bonferroni's multiple comparison test vs. vehicle controls using the GraphPad PRISM software, *p<0.05, **p<0.01.
Background: ELISA stands for enzyme-linked immunosorbent assay.

Another assay has as its target T1, mouse P2X4 receptors (Mus musculus, UniProt Q9JJX6).
T1 construct: host or cells: HEK 293 (recombinant, constitutively expressing)
T1 sequence (Q9JJX6 1-388): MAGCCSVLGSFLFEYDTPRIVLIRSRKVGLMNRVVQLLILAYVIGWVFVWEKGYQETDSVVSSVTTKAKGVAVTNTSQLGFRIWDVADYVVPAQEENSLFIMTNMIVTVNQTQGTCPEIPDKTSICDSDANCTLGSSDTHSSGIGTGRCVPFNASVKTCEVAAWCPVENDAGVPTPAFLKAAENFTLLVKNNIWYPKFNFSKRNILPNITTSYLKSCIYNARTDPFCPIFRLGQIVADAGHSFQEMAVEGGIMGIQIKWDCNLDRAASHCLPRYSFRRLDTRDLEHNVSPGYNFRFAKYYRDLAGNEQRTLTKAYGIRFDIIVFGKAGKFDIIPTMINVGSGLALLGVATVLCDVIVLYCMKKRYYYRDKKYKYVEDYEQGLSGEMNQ
Nature of the assay: Assay B: mouse P2X4 receptor cell line, Fluo8 fluorescence FLIPR (agonist Bz-ATP at EC50). The note with it: HEK mouse P2X4 cell line, agonist Bz-ATP at EC50, average. Type of assay: cell-based.

Another assay concerns c57bl/6 mice. Nature of the assay: CFA inflammation model with pain read out (dynamic weight bearing). Type of assay: in vivo, mouse. The note with it: 50 mg/kg oral on day 1 and day 2 post-CFA, 24-48 h after CFA. How it is done: Wild type female c57bl/6 mice (Taconic) received intraplantar injection of complete Freund's adjuvant (CFA) (30 μl, 1 mg/ml, Sigma) into the left hind paw under isoflurane anesthesia. […] Spontaneous pain-related behavior in freely moving animals was assessed using the automated dynamic weight bearing device (DWB, Bioseb, France) according to published and validated protocols (Robinson et al., 2012; Tetreault et al., 2011; Gruen et al. 2014). For behavioral testing, the animal was placed inside a Plexiglas chamber and allowed to move freely within the apparatus for a 5 min period, subsequently pain behavior is recorded for a test period of another 5 min.
as §1

Entries after “also recorded” stand apart in the source; their conditions may differ.

As for `NS(=O)(=O)c1cc(NC(=O)Cc2ccccc2)ccc1Oc1cccc(Cl)c1` [Example 244, N-[4-(3-Chlorophenoxy)-3-sulfamoylphenyl]-2-phenylacetamide], in the assay with PGE2 levels, the “PGE2 levels in inflamed hind paw after CFA injection” value is on record as “dose-dependently reduced PGE2 levels; also recorded: still in the range of PGE2 levels of PBS treated animals”. Further, on mouse P2X4 receptors, the “mouse P2X4 Assay B avg Efficacy” value stood at 51%. In addition, the “spontaneous pain behavior assessed by DWB after CFA-induced inflammation” value with c57bl/6 mice was “significantly reduced spontaneous pain behavior”.
